Laboratory results as given in paper PMC7830303, “Development of Antimicrobial Stapled Peptides Based on Magainin 2 Sequence” (Molecules, 2021).
Converted amounts (≈) assume the structure as drawn. Bridge positions count the residues as written; N and C are the ends. Square brackets hold non-standard residues; d marks the D form. Peptide text beside a SMILES is read from it. * marks the point of attachment. Stearoyl = CCCCCCCCCCCCCCCCCC(=O)*; R8 = C=CCCCCCC[C@@](C)(N)C(=O)O; Lauroyl = CCCCCCCCCCCC(=O)*; S5 = C=CCCC[C@](C)(N)C(=O)O; Hexanoyl = CCCCCC(=O)*; Aib = CC(C)(N)C(=O)O

Experiments:
[1] = tested on: multiple-drug resistant P. aeruginosa (MDRP); format: cell-based, Pseudomonas aeruginosa; conditions: multiple-drug resistant (MDRP, 16 h)
Method: (§1) Selected bacterial strains were obtained from Biological Resource Center, NITE (NBRC; Tokyo, Japan). E. coli DH5α was purchased from BioDynamics Laboratory, Inc. (Tokyo, Japan). The antimicrobial activities of the peptides against the gram-positive S. aureus and gram-negative E. coli DH5α, P. aeruginosa, and MDRP were measured using standard broth microdilution method as previously described. Briefly, the bacteria were inoculated and grown overnight at 37 °C on agar media for other organisms i and then collected with liquid media for other organisms ii, according to Japanese Pharmacopoeia, 17th Edition. Each peptide was 2-fold serially diluted with an initial concentration of 500 μM to a final concentration of 1 μM using PBS. Then, 10 μL of the peptide solution was added to each well of a sterile 96-well plate. Subsequently, 90 μL of inoculation with 10^4 colony forming units (CFUs) per mL were added to each well, and the plate was incubated at 35 °C for 16 h.

Escherichia coli DH5α = format: cell-based; conditions: 16 h
Method: as §1

Staphylococcus aureus = format: cell-based; conditions: 16 h
Method: as §1

Pseudomonas aeruginosa = format: cell-based; conditions: 16 h
Method: as §1

digestive enzymes = conditions: cited from earlier work
Source text: Mag2 comprises cationic and hydrophobic amino acid residues and employs a helical structure […]. These properties are required for interaction with microbial membranes, and subsequent Mag2 insertions into membranes induce bacterial pore formation and ion efflux to exert their antimicrobial activity. The antimicrobial activity of AMPs targets the bacterial ...

[2] = pH 7.4

Compound | MIC, Gram Negative, MDRP [1] [µM] | MIC, Gram Negative, E.c. (DH5α) (Escherichia coli DH5α) [µM] | MIC, Gram Positive, S.a. (Staphylococcus aureus) [µM] | MIC, Gram Negative, P.a. (Pseudomonas aeruginosa) [µM] | Solubility in the aqueous buffer solution [2] | Resistance against digestive enzymes (digestive enzymes)
CCCCCC(=O)N[C@@]1(C)CCCC=CCCC[C@@](C)(C(=O)N[C@@H](CC(C)C)C(=O)N[C@@H](CCCCN)C(=O)N[C@@H](CO)C(=O)N[C@@H](C)C(=O)N[C@@H](CCCCN)C(=O)N[C@@H](CCCCN)C(=O)N[C@@H](Cc2ccccc2)C(=O)N[C@H](C(=O)N[C@@H](CCCCN)C(=O)N[C@@H](C)C(=O)N[C@@H](Cc2ccccc2)C(=O)N[C@@H](CCCCN)C(N)=O)C(C)C)NC(=O)[C@H](CCCCN)NC(=O)[C@H](CCCCN)NC(=O)[C@H]([C@@H](C)CC)NC1=O [Peptide C6-2] (Hexanoyl-[S5]IKK[S5]LKSAKKFVKAFK-NH2; staple 1-5) | 3.125 (≈ 6.6 µg/mL) | 1.56 (≈ 3.29 µg/mL) | 1.56 (≈ 3.29 µg/mL) | 3.125 (≈ 6.6 µg/mL) | – | –
CC[C@H](C)[C@@H]1NC(=O)[C@@](C)(N)CCCC=CCCC[C@@](C)(C(=O)N[C@@H](CC(C)C)C(=O)N[C@@H](CCCCN)C(=O)N[C@@H](CO)C(=O)N[C@@H](C)C(=O)N[C@@H](CCCCN)C(=O)N[C@@H](CCCCN)C(=O)N[C@@H](Cc2ccccc2)C(=O)N[C@H](C(=O)N[C@@H](CCCCN)C(=O)N[C@@H](C)C(=O)N[C@@H](Cc2ccccc2)C(=O)N[C@@H](CCCCN)C(N)=O)C(C)C)NC(=O)[C@H](CCCCN)NC(=O)[C@H](CCCCN)NC1=O [Peptide 2] (H-[S5]IKK[S5]LKSAKKFVKAFK-NH2; staple 1-5) | 1.56 (≈ 3.14 µg/mL) | 1.56 (≈ 3.14 µg/mL) | 3.125 (≈ 6.29 µg/mL) | 1.56 (≈ 3.14 µg/mL) | – | –
CC[C@H](C)[C@H](NC(=O)CN)C(=O)N[C@@H](CCCCN)C(=O)N[C@@H](CCCCN)C(=O)N[C@@H](Cc1ccccc1)C(=O)N[C@@H](CC(C)C)C(=O)N[C@@H](CCCCN)C(=O)N[C@@H](CO)C(=O)N[C@@H](C)C(=O)N[C@@H](CCCCN)C(=O)N[C@@H](CCCCN)C(=O)N[C@@]1(C)CCCC=CCCC[C@@](C)(C(=O)N[C@@H](CCCCN)C(N)=O)NC(=O)[C@H](C)NC(=O)[C@H](CCCCN)NC(=O)[C@H](C(C)C)NC1=O [Peptide 6] (H-GIKKFLKSAKK[S5]VKA[S5]K-NH2; staple 12-16) | 0.78 (≈ 1.5 µg/mL) | 1.56 (≈ 3 µg/mL) | 3.125 (≈ 6.01 µg/mL) | 1.56 (≈ 3 µg/mL) | – | –
CC[C@H](C)[C@H](NC(=O)CN)C(=O)N[C@@H](CCCCN)C(=O)N[C@@H](CCCCN)C(=O)N[C@@H](Cc1ccccc1)C(=O)N[C@@H](CC(C)C)C(=O)N[C@@H](CCCCN)C(=O)N[C@@H](CO)C(=O)NC(C)(C)C(=O)N[C@@H](CCCCN)C(=O)N[C@@H](CCCCN)C(=O)N[C@@H](Cc1ccccc1)C(=O)N[C@H](C(=O)N[C@@H](CCCCN)C(=O)NC(C)(C)C(=O)N[C@@H](Cc1ccccc1)C(=O)N[C@@H](CCCCN)C(N)=O)C(C)C [Peptide 1, reference compound] (H-GIKKFLKS[Aib]KKFVK[Aib]FK-NH2) | 3.125 (≈ 6.24 µg/mL) | 3.125 (≈ 6.24 µg/mL) | 12.5 (≈ 24.9 µg/mL) | 3.125 (≈ 6.24 µg/mL) | – | showed resistance against digestive enzymes
CCCCCCCCCCCC(=O)N[C@@]1(C)CCCC=CCCC[C@@](C)(C(=O)N[C@@H](CC(C)C)C(=O)N[C@@H](CCCCN)C(=O)N[C@@H](CO)C(=O)N[C@@H](C)C(=O)N[C@@H](CCCCN)C(=O)N[C@@H](CCCCN)C(=O)N[C@@H](Cc2ccccc2)C(=O)N[C@H](C(=O)N[C@@H](CCCCN)C(=O)N[C@@H](C)C(=O)N[C@@H](Cc2ccccc2)C(=O)N[C@@H](CCCCN)C(N)=O)C(C)C)NC(=O)[C@H](CCCCN)NC(=O)[C@H](CCCCN)NC(=O)[C@H]([C@@H](C)CC)NC1=O [Peptide C12-2] (Lauroyl-[S5]IKK[S5]LKSAKKFVKAFK-NH2; staple 1-5) | 25 (≈ 54.9 µg/mL) | 6.25 (≈ 13.7 µg/mL) | 6.25 (≈ 13.7 µg/mL) | 12.5 (≈ 27.4 µg/mL) | – | –
CCCCCCCCCCCCCCCCCC(=O)N[C@@]1(C)CCCC=CCCC[C@@](C)(C(=O)N[C@@H](CC(C)C)C(=O)N[C@@H](CCCCN)C(=O)N[C@@H](CO)C(=O)N[C@@H](C)C(=O)N[C@@H](CCCCN)C(=O)N[C@@H](CCCCN)C(=O)N[C@@H](Cc2ccccc2)C(=O)N[C@H](C(=O)N[C@@H](CCCCN)C(=O)N[C@@H](C)C(=O)N[C@@H](Cc2ccccc2)C(=O)N[C@@H](CCCCN)C(N)=O)C(C)C)NC(=O)[C@H](CCCCN)NC(=O)[C@H](CCCCN)NC(=O)[C@H]([C@@H](C)CC)NC1=O [Peptide C18-2] (Stearoyl-[S5]IKK[S5]LKSAKKFVKAFK-NH2; staple 1-5) | >50 | >50 | >50 | >50 | poor solubility | –

More lines, main results first:

MIC, Gram Negative, MDRP [1] [µM] | MIC, Gram Negative, E.c. (DH5α) (Escherichia coli DH5α) [µM] | MIC, Gram Positive, S.a. (Staphylococcus aureus) [µM] | MIC, Gram Negative, P.a. (Pseudomonas aeruginosa) [µM] | Solubility in the aqueous buffer solution [2] | Compound | Resistance against digestive enzymes (digestive enzymes)
3.125 (≈ 6.38 µg/mL) | 3.125 (≈ 6.38 µg/mL) | 6.25 (≈ 12.8 µg/mL) | 6.25 (≈ 12.8 µg/mL) | – | CC[C@H](C)[C@H](NC(=O)CN)C(=O)N[C@@H](CCCCN)C(=O)N[C@@H](CCCCN)C(=O)N[C@@H](Cc1ccccc1)C(=O)N[C@@H](CC(C)C)C(=O)N[C@@H](CCCCN)C(=O)N[C@@H](CO)C(=O)N[C@]1(C)CCCCCCC=CCCC[C@@](C)(C(=O)N[C@@H](CCCCN)C(N)=O)NC(=O)[C@H](C)NC(=O)[C@H](CCCCN)NC(=O)[C@H](C(C)C)NC(=O)[C@H](Cc2ccccc2)NC(=O)[C@H](CCCCN)NC(=O)[C@H](CCCCN)NC1=O [Peptide 9] (H-GIKKFLKS[R8]KKFVKA[S5]K-NH2; staple 9-16) | –
3.125 (≈ 6.4 µg/mL) | 1.56 (≈ 3.19 µg/mL) | 12.5 (≈ 25.6 µg/mL) | 6.25 (≈ 12.8 µg/mL) | – | CC[C@H](C)[C@H](NC(=O)CN)C(=O)N[C@@H](CCCCN)C(=O)N[C@@H](CCCCN)C(=O)N[C@@H](Cc1ccccc1)C(=O)N[C@@H](CC(C)C)C(=O)N[C@@H](CCCCN)C(=O)N[C@@H](CO)C(=O)N[C@@]1(C)CCCC=CCCC[C@@](C)(C(=O)N[C@@H](CCCCN)C(=O)N[C@@H](C)C(=O)N[C@@H](Cc2ccccc2)C(=O)N[C@@H](CCCCN)C(N)=O)NC(=O)[C@H](Cc2ccccc2)NC(=O)[C@H](CCCCN)NC(=O)[C@H](CCCCN)NC1=O [Peptide 5] (H-GIKKFLKS[S5]KKF[S5]KAFK-NH2; staple 9-13) | –
3.125 (≈ 6.57 µg/mL) | 6.25 (≈ 13.1 µg/mL) | >50 | >50 | – | CC[C@H](C)[C@H](NC(=O)CN)C(=O)N[C@@H](CCCCN)C(=O)N[C@@H](CCCCN)C(=O)N[C@@H](Cc1ccccc1)C(=O)N[C@@H](CC(C)C)C(=O)N[C@@H](CCCCN)C(=O)N[C@]1(C)CCCCCCC=CCCC[C@@](C)(C(=O)N[C@@H](Cc2ccccc2)C(=O)N[C@@H](CCCCN)C(N)=O)NC(=O)[C@H](CCCCN)NC(=O)[C@H](C(C)C)NC(=O)[C@H](Cc2ccccc2)NC(=O)[C@H](CCCCN)NC(=O)[C@H](CCCCN)NC(=O)[C@H](C)NC1=O [Peptide 8] (H-GIKKFLK[R8]AKKFVK[S5]FK-NH2; staple 8-15) | –
1.56 (≈ 3.07 µg/mL) | 3.125 (≈ 6.14 µg/mL) | 25 (≈ 49.1 µg/mL) | 3.125 (≈ 6.14 µg/mL) | – | CC[C@H](C)[C@H](NC(=O)CN)C(=O)N[C@@H](CCCCN)C(=O)N[C@@H](CCCCN)C(=O)N[C@]1(C)CCCCCCC=CCCC[C@@](C)(C(=O)N[C@H](C(=O)N[C@@H](CCCCN)C(=O)N[C@@H](C)C(=O)N[C@@H](Cc2ccccc2)C(=O)N[C@@H](CCCCN)C(N)=O)C(C)C)NC(=O)[C@H](CCCCN)NC(=O)[C@H](CCCCN)NC(=O)[C@H](C)NC(=O)[C@H](CO)NC(=O)[C@H](CCCCN)NC(=O)[C@H](CC(C)C)NC1=O [Peptide 7] (H-GIKK[R8]LKSAKK[S5]VKAFK-NH2; staple 5-12) | –
0.78 (≈ 1.56 µg/mL) | 1.56 (≈ 3.12 µg/mL) | 3.125 (≈ 6.25 µg/mL) | 3.125 (≈ 6.25 µg/mL) | – | CC[C@H](C)[C@H](NC(=O)CN)C(=O)N[C@@H](CCCCN)C(=O)N[C@@H](CCCCN)C(=O)N[C@@]1(C)CCCC=CCCC[C@@](C)(C(=O)N[C@@H](CCCCN)C(=O)N[C@@H](CCCCN)C(=O)N[C@@H](Cc2ccccc2)C(=O)N[C@H](C(=O)N[C@@H](CCCCN)C(=O)N[C@@H](C)C(=O)N[C@@H](Cc2ccccc2)C(=O)N[C@@H](CCCCN)C(N)=O)C(C)C)NC(=O)[C@H](CO)NC(=O)[C@H](CCCCN)NC(=O)[C@H](CC(C)C)NC1=O [Peptide 3] (H-GIKK[S5]LKS[S5]KKFVKAFK-NH2; staple 5-9) | –
0.78 (≈ 1.55 µg/mL) | 1.56 (≈ 3.09 µg/mL) | 6.25 (≈ 12.4 µg/mL) | 1.56 (≈ 3.09 µg/mL) | – | CC[C@H](C)[C@H](NC(=O)CN)C(=O)N[C@@H](CCCCN)C(=O)N[C@@H](CCCCN)C(=O)N[C@@H](Cc1ccccc1)C(=O)N[C@@H](CC(C)C)C(=O)N[C@@H](CCCCN)C(=O)N[C@@]1(C)CCCC=CCCC[C@@](C)(C(=O)N[C@H](C(=O)N[C@@H](CCCCN)C(=O)N[C@@H](C)C(=O)N[C@@H](Cc2ccccc2)C(=O)N[C@@H](CCCCN)C(N)=O)C(C)C)NC(=O)[C@H](CCCCN)NC(=O)[C@H](CCCCN)NC(=O)[C@H](C)NC1=O [Peptide 4] (H-GIKKFLK[S5]AKK[S5]VKAFK-NH2; staple 8-12) | –
